These results are taken from patent US8772318B2, “Methods and compositions related to targeting monoacylglycerol lipase” (The Scripps Research Institute, priority 2008, dated 2014).

For experiment [1], the system named is brain levels of 2-AG, arachidonic acid, NAEs, MAGs, free fatty acids. The experiment in a line: Measurement of brain lipids in treated mice. The experiment is classed as in vivo, mouse. The note with it: URB597 10 mg/kg, i.p. As to the method:
Measurement of brain lipids. One half brain was weighed and subsequently Dounce homogenized in 2:1:1 v/v/v CHCl3:MeOH:Tris pH 8.0 (8 ml) containing standards for N-acylethanolamine (NAE), monoacylglycerol (MAG), or free fatty acid (FFA) measurements (200 pmol d4-OEA, 20 pmol d4-AEA, 400 pmol C15:0-MAG, and 4 nmol PDA). The mixture was vortexed and then centrifuged (1,400×g, 10 min). The organic layer was removed, CHCl3 was added until the final volume was again 8 ml, and the extraction was repeated. The combined organic extracts were dried under a stream of N2 and resolubilized in 2:1 v/v CHCl3:MeOH (120 μl). 30 uL and 15 uL of resolubilized lipid were injected for positive mode (MAG and NAE) and negative mode (free fatty acid) measurements, respectively. Lipid measurements were performed by LC-MS using the same instrument and solvents as described above. Solvent modifiers such as 0.1% formic acid or 0.1% ammonium hydroxide were included to assist in ion formation in positive and negative ionization mode, respectively. For positive mode measurements, the flow rate for each run started at 0.1 ml/min for 5 min. […] MAGs, NAEs, and FFAs were quantified by measuring the area under the peak in comparison to the C15:0 or deuterated standards. […]

A further experiment has as its target T1, FAAH (Mus musculus, UniProt O08914).
T1 construct: from tissue; host or cells: mouse brain membrane fraction
T1 sequence (O08914 1-579): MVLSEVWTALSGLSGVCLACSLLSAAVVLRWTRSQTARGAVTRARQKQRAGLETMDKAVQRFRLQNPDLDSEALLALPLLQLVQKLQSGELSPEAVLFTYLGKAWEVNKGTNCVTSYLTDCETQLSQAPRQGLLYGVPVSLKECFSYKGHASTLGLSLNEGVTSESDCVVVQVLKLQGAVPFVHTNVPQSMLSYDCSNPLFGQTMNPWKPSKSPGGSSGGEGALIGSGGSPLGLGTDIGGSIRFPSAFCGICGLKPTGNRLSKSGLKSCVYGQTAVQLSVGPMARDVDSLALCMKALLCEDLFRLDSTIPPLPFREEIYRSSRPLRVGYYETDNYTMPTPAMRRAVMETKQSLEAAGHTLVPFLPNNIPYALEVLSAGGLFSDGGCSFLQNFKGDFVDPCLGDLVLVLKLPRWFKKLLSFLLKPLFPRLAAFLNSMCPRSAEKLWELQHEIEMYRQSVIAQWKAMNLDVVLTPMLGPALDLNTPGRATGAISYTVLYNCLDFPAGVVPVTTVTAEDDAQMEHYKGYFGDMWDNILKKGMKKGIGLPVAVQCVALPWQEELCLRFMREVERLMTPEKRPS
The experiment in a line: FAAH activity of brain membranes from treated mice (competitive ABPP, oleamide substrate assay). The experiment is classed as in vivo. Particulars: URB597 10 mg/kg, i.p. As to the method: Enzyme activity assays. Briefly, 2-AG (100 μM) was incubated with mouse brain membrane (20 μg) or recombinant MAGL in COS7 cells (0.1 μg) in PBS (200 μl) at room temperature for 10 min. The reactions were quenched by the addition of 500 μL 2:1 v/v CHCl3:MeOH, doped with 0.5 nmol PDA, vortexed, then centrifuged (1,400×g, 3 min) to separate the phases. 30 ul of the resultant organic phase was injected onto an Agilent 1100 series LC-MSD SL instrument. […] Mobile phase A was composed of 95:5 v/v H2O:MeOH, and mobile phase B was composed of 60:35:5 v/v/v i-PrOH:MeOH:H2O. 0.1% ammonium hydroxide was included to assist in ion formation in negative ionization mode. […] Hydrolysis products were quantified by measuring the area under the peak in comparison to the PDA standard. ^13C-oleamide or AEA hydrolysis activity was determined using mouse brain membrane (50 μg) or recombinant FAAH in COST cells (5 μg), respectively, in PBS (100 μl). […] DAGLβ hydrolysis activity was determined using recombinant DAGLβ in HEK293 cells (50 μg) in PBS (100 μl). […]
Competitive activity-based protein profiling (ABPP) experiments. […] After 30 min at room temperature, the reactions were quenched with 4×SDS-PAGE loading buffer, boiled for 5 min at 90° C., subjected to SDS-PAGE, and visualized in-gel using a flatbed fluorescence scanner. […]

On to `NC(=O)c1cccc(-c2cccc(OC(=O)NC3CCCCC3)c2)c1` [URB597], for which, in experiment [1], the “brain 2-AG or arachidonic acid levels” value is reported as “without altering”; the “brain anandamide and other NAEs” value is “significant elevations”. The “brain FAAH activity” value on FAAH was “completely inhibited”.
